These results are taken from ChEMBL document CHEMBL1201862, “PubChem BioAssay data set” (2004).

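Cells were grown in 96-well plates and exposed to each compound for 48 hours at five concentrations; endpoints were interpolated linearly between bracketing concentrations, or set to the highest concentration if not reached. At the GI50, growth is halved.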 Active and inactive are the calls of the source. Rule as the data show it: active = GI50 up to about 1.1 µM and inactive = higher.

Some test systems named below: HOP-92; RXF 393; UACC-62; COLO 205; SK-MEL-28; HL-60; OVCAR-3; KM12; HCC 2998; NCI-H23; CAKI-1; OVCAR-5; OVCAR-4; SNB-75; HCT-116; MCF7; NCI/ADR-RES; BT-549; DU-145.
What all share (test): DTP human tumour cell line panel, 48 h

A word on the GI50: it is the concentration giving 50% growth inhibition. Take `O=C1/C(=C/c2ccccc2)CN(C(=O)Oc2ccc([N+](=O)[O-])cc2)C/C1=C\c1ccccc1`: the GI50 with HOP-92 is > 10 µM (inactive); in the assay on RXF 393, 6.84 µM (inactive); in the assay with UACC-62 it was 2.41 µM (inactive); in the assay on COLO 205 it was 7.83 µM (inactive); in the assay on SK-MEL-28, 3.48 µM (inactive); with HL-60, 1.04 µM (active). In addition, the GI50 in the assay on OVCAR-3 was 3.73 µM (inactive); with KM12 it was 0.661 µM (active); in the assay on HCC 2998, 2.74 µM (inactive); in the assay on NCI-H23, 7.76 µM (inactive); in the assay on CAKI-1 it was > 10 µM (inactive); in the assay on OVCAR-5 it was > 10 µM (inactive). Besides, the GI50 was 2.56 µM (inactive) in the assay with OVCAR-4, 4.4 µM (inactive) with SNB-75 and 0.506 µM (active) in the assay on HCT-116.
Consider `O=c1[nH]c2cc([N+](=O)[O-])ccc2nc1/C(=N/Nc1ccccc1)C(O)c1ccccc1Cl` (stereo unspecified), for which the GI50 was > 100 µM (inactive) in the assay with HOP-92; > 100 µM (inactive) in the assay with RXF 393; 11.2 µM (inactive) in the assay with UACC-62; 39.7 µM (inactive) in the assay with COLO 205; > 100 µM (inactive) in the assay on SK-MEL-28; > 100 µM (inactive) with HL-60. The GI50 is 59.3 µM (inactive) with OVCAR-3; 27.8 µM (inactive) with KM12; 22.3 µM (inactive) in the assay with HCC 2998; 90.8 µM (inactive) with NCI-H23; 95.5 µM (inactive) in the assay on OVCAR-5; 79.8 µM (inactive) in the assay with OVCAR-4. In addition, the GI50 with SNB-75 was 28.2 µM (inactive); in the assay on HCT-116, > 100 µM (inactive).
`COc1ccccc1NC(=O)C(CC(C(=O)Nc1ccccc1OC)/C(C)=N/NC(=O)c1ccccc1O)/C(C)=N/NC(=O)c1ccccc1O` (stereo unspecified): the GI50 in the assay on HOP-92 is 26 µM (inactive); in the assay with RXF 393 it was 38.8 µM (inactive); in the assay on COLO 205, > 100 µM (inactive); with SK-MEL-28, > 100 µM (inactive); with HL-60 it was 47.5 µM (inactive); in the assay on OVCAR-3, 54.1 µM (inactive). For the same molecule, the GI50 in the assay with KM12 was > 100 µM (inactive); in the assay on HCC 2998 it was > 100 µM (inactive); with NCI-H23, > 100 µM (inactive); in the assay with CAKI-1, 67 µM (inactive); in the assay on OVCAR-5 it was > 100 µM (inactive); in the assay with OVCAR-4 it was 51.8 µM (inactive). Besides, in the assay with SNB-75, the GI50 was 96.6 µM (inactive).
Turning to `CC(C)(C)n1c(=O)[nH]c(=O)n1C(C)(C)C`, the GI50 in the assay on MCF7, with HOP-92, in the assay on RXF 393, with UACC-62, in the assay on COLO 205 and in the assay on SK-MEL-28 was > 100 µM (inactive) throughout. Besides, the GI50 in the assay with HL-60, in the assay on OVCAR-3, with NCI/ADR-RES, in the assay with KM12, with HCC 2998 and in the assay on NCI-H23 was > 100 µM (inactive) each time. For the same molecule, the GI50 in the assay on BT-549, in the assay on CAKI-1, in the assay with OVCAR-5, in the assay with OVCAR-4, in the assay on SNB-75 and with HCT-116 was > 100 µM (inactive) in each case.
In the case of `CCCCCCn1c(SCC)c2ccccc2c1-c1nc(F)nc(F)n1`, the GI50 with HOP-92, with RXF 393, in the assay with COLO 205, with SK-MEL-28, in the assay on HL-60 and in the assay with OVCAR-3 was > 100 µM (inactive) each time. The GI50 in the assay with KM12, in the assay with HCC 2998, in the assay with NCI-H23, in the assay on CAKI-1, with OVCAR-5 and in the assay with OVCAR-4 was > 100 µM (inactive) each time. Also, the GI50 is 73.5 µM (inactive) with SNB-75 and > 100 µM (inactive) in the assay with HCT-116.
Regarding `C/C(CC(=O)Nc1cc(C)ccc1C)=N/N=C(N)N`, the GI50 with HOP-92, with RXF 393, with UACC-62, in the assay on COLO 205, in the assay on SK-MEL-28 and in the assay with HL-60 was > 100 µM (inactive) each time. Also, the GI50 in the assay on OVCAR-3, in the assay with KM12, in the assay on HCC 2998, in the assay on NCI-H23, in the assay on OVCAR-5 and in the assay on SNB-75 was > 100 µM (inactive) each time. For the same molecule, the GI50 with HCT-116 was > 100 µM (inactive).
Regarding `CCC(C)C(Nc1c2ccccc2nc2c(C(=O)NCCN(C)C)cccc12)C(=O)O` (stereo unspecified), the GI50 in the assay on MCF7 was 5.86 µM (inactive); with HOP-92, 11.8 µM (inactive); in the assay on UACC-62, 15.9 µM (inactive); in the assay on COLO 205 it was 6.15 µM (inactive); in the assay with SK-MEL-28 it was 23.6 µM (inactive); in the assay with DU-145, 38.1 µM (inactive). The GI50 in the assay with OVCAR-3 was 23.6 µM (inactive); with NCI/ADR-RES it was 10.4 µM (inactive); in the assay with KM12 it was 14.8 µM (inactive); in the assay on NCI-H23 it was 20.2 µM (inactive); with OVCAR-5, 21.3 µM (inactive); in the assay on OVCAR-4 it was 5.83 µM (inactive). In addition, the results for the GI50 in the assay with SNB-75 and in the assay with HCT-116 were 18 µM (inactive) and 4.28 µM (inactive), respectively.
Consider `CC(=O)OCC1OC(OC2CC3C(C)(C)C(OC(C)=O)CC[C@]3(C)C3CCC45CC4(CC[C@H]5C(C)CC(O)C4OC4(C)C)[C@]23C)C(O)C(O)C1O` (stereo partly specified), for which the GI50 is 2.25 µM (inactive) in the assay with HOP-92; 1.55 µM (inactive) in the assay with RXF 393; 1.99 µM (inactive) with UACC-62; 1.01 µM (active) in the assay on COLO 205; 2.03 µM (inactive) in the assay with SK-MEL-28; 1.18 µM (inactive) in the assay with HL-60. Besides, the GI50 is 2.58 µM (inactive) with OVCAR-3; 1.35 µM (inactive) in the assay on KM12; 1.37 µM (inactive) in the assay with HCC 2998; 2.86 µM (inactive) with NCI-H23; 4.32 µM (inactive) with CAKI-1; 1.03 µM (active) with OVCAR-5. In addition, the GI50 in the assay with OVCAR-4 is 1.48 µM (inactive); in the assay with SNB-75 it was 2.27 µM (inactive); in the assay on HCT-116 it was 1.34 µM (inactive).
Take `CSc1ccc2c(cc1=O)[C@@H](NC(=O)c1ccc(F)cc1)CCc1cc(O)c(O)c(O)c1-2`: the GI50 is 84.9 µM (inactive) in the assay with HOP-92; > 100 µM (inactive) in the assay with RXF 393; > 100 µM (inactive) with UACC-62; > 100 µM (inactive) in the assay on COLO 205; > 100 µM (inactive) in the assay on SK-MEL-28; > 100 µM (inactive) in the assay on HL-60. Moreover, the GI50 with OVCAR-3, in the assay with KM12, in the assay on HCC 2998, with NCI-H23, with CAKI-1 and in the assay with OVCAR-5 was > 100 µM (inactive) in each case. In addition, the GI50 in the assay on OVCAR-4, in the assay with SNB-75 and in the assay with HCT-116 was > 100 µM (inactive) in each case.
